Consider 23 molecules from ChEMBL document CHEMBL4043240, “Synthesis and evaluation of the NSCLC anti-cancer activity and physical properties of 4-aryl-N-phenylpyrimidin-2-amines” (Bioorg Med Chem Lett, 2017).

The term solubility denotes the concentration that dissolves in the medium under given conditions. One may read the logD as lipophilicity at a set pH, counting ionised and neutral species. The IC50 is the point on the concentration scale where inhibition reaches its midpoint.

Series [1] in a line: Solubility of the compound in PBS at pH 7.4 by HPLC-UV analysis. Format: physicochemical.
The subject of series [2] is MCF7. The experiment in a line: Cytotoxicity against human MCF7 cells at 10 uM after 72 hrs by resazurin based fluorescence assay. The series is classed as functional. Background: Resazurin is reduced to fluorescent resorufin, in cell work by metabolically active cells.
A short description of series [3]: 1-octanol/water partition co-efficient, log D of the compound in PBS at pH 7.4 after 6 hrs by HPLC-UV based shake-flask method. Format: physicochemical. The note with it: 1-octanol/PBS.
The subject of series [4] is KB. Nature of the series: Cytotoxicity against human KB cells at 10 uM after 72 hrs by resazurin based fluorescence assay relative to control. The series is classed as functional.
For series [5], the system named is A549. The experiment in a line: Cytotoxicity against human A549 cells after 72 hrs by MTT assay. Format: functional, cell-based. The note with it: A549, 72 h. For orientation: Tetrazolium assays rely on reduction of a dye to a coloured formazan, in cell work by metabolically active cells.
Series [6] has as its system Vero. Nature of the series: Cytotoxicity against African green monkey Vero cells after 72 hrs by MTT assay. The series is classed as ADME, cell-based. The note with it: Chlorocebus sabaeus.
Series [7] in a line: Selectivity index, ratio of IC50 for African green monkey Vero cells to IC50 for human A549 cells. The series is classed as functional.
For series [8], the system named is NCI-H187. Nature of the series: Cytotoxicity against human NCI-H187 cells at 10 uM after 72 hrs by resazurin based fluorescence assay. The series is classed as functional.
Series [9] has as its system NCI-H187. Nature of the series: Cytotoxicity against human NCI-H187 cells at 10 ug/ml after 72 hrs by resazurin based fluorescence assay. Format: functional.
The subject of series [10] is KB. Nature of the series: Cytotoxicity against human KB cells at 10 ug/ml after 72 hrs by resazurin based fluorescence assay relative to control. The series is classed as functional.
Series [11] has as its system KB. The experiment in a line: Cytotoxicity against human KB cells after 72 hrs by resazurin based fluorescence assay. The series is classed as functional, cell-based.
Series [12] relates to NCI-H187. Nature of the series: Cytotoxicity against human NCI-H187 cells after 72 hrs by resazurin based fluorescence assay. The note with it: NCI-H187, 72 h. The series is classed as functional, cell-based.
The subject of series [13] is MCF7. The experiment in a line: cells. The note with it: Homo sapiens, MCF7, 72 h.
Description: Cytotoxicity against human MCF7 cells after 72 hrs by resazurin based fluorescence assay
Series [14] concerns the target Cyclin-dependent kinase 5 (Homo sapiens, UniProt Q00535). Nature of the series: Inhibition of human CDK5.

≈ marks a conversion by molar mass, not a printed value.

Cyclin-dependent kinase 5, sequence (Q00535 whole entry): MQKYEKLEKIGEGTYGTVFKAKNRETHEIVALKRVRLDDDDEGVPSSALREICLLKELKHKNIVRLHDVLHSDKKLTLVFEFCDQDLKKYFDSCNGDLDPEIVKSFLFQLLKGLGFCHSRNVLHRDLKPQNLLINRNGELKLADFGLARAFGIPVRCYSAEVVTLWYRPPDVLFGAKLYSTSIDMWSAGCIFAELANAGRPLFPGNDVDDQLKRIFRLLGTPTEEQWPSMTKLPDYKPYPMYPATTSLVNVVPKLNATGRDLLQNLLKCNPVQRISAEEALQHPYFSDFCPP

Consider `COc1ccc(-c2ccnc(Nc3ccc(C(N)=O)cc3)n2)cc1`, for which the solubility in series [1] was under 0.6 µM. Besides, the Activity was found to be 1.9% in [2], 0% in [4] and 28.1% in [8]. The logD at 6 h in [3] was found to be 2.8. Further, the IC50 in series [5] is 5.3 µM; in [6], 5.4 µM. In series [7], the “Ratio IC50” value is listed as 0.

With `COc1ccc(-c2ccnc(Nc3cccc(C(N)=O)c3)n2)cc1`, in series [1], the concentration in solution (solubility) came to 4.1 µM (≈ 1.31 µg/mL). The results for the Activity in [2], in series [4] and in series [8] were 0%, 0% and 18.6%, respectively. The molecule further showed a logD at 6 h in series [3] of 3.1. The IC50 in series [5] was determined as 6.7 µM; in series [6], 2.7 µM. In series [7], the “Ratio IC50” value is on record as 0.

Regarding `Cc1csc(-c2ccnc(Nc3cc([N+](=O)[O-])ccc3O)n2)c1`, the 50% inhibitory concentration (IC50) in [5] and in series [6] was over 100 µM each time. In addition, the “Ratio IC50” value in series [7] is given as 0.

Turning to `Cc1c2ccncc2c(C)c2c1[nH]c1ccccc12` [ELLIPTECINE], the Activity in [9] is on record as 99.24%; in [10], 96.3%. Moreover, the IC50 came out at 2.81 µM in [11] and 0.95 µM in series [12].

As for `CS(=O)(=O)c1ccc(-c2ccnc(Nc3cccc(S(N)(=O)=O)c3)n2)cc1`, the IC50 in [5] and in [6] was over 100 µM in each case. Moreover, the “Ratio IC50” value in series [7] is on record as 0.

Take `COC(=O)c1ccc(Nc2nccc(-c3ccc(OC)cc3)n2)cc1`: in series [1], the solubility is 6.9 µM (≈ 2.31 µg/mL). Besides, the Activity in [2] was found to be 0%; in [4], 0%; in series [8], 23.8%. The logD at 6 h in [3] was 2.9. The IC50 turned out to be 6 µM in [5] and 4.5 µM in series [6]. Also, the “Ratio IC50” value in [7] is recorded as 0.

As for `COc1cccc(-c2ccnc(Nc3cccc(S(N)(=O)=O)c3)n2)c1`, the solubility in series [1] was under 0.6 µM. Further, the Activity in [2] was 63.8%; in series [4], 94.9%; in [8], 96.6%. The molecule further gave a logD at 6 h in series [3] of 3. In addition, the IC50 in series [5] came to 2.6 µM; in series [11], 3.56 µM; in [13], 1.5 µM; in series [6], 1.1 µM; in series [12] it was 1.34 µM. Besides, in series [7], the “Ratio IC50” value came out at 0.

On to `NS(=O)(=O)c1cccc(Nc2nccc(-c3ccccc3)n2)c1`, for which the concentration in solution in [1] (solubility) was 3.4 µM (≈ 1.11 µg/mL). The Activity in series [2] is on record as 0%; in [4], 93.6%; in series [8] it was 99.8%. Also, the logD at 6 h in series [3] was 2.9. Besides, the IC50 in series [5] stood at 0.2 µM; in series [11], 2.44 µM; in series [6], 0.8 µM; in series [12], 1.18 µM. The “Ratio IC50” value in [7] is reported as 4.

Consider `Cc1csc(-c2ccnc(Nc3ccc(C(=O)O)cc3)n2)c1`, for which the values for the IC50 in [5] and in series [6] were 18.2 µM and 80.8 µM, respectively. Also, in series [7], the “Ratio IC50” value is listed as 4.4.

For `COc1ccc(-c2ccnc(Nc3ccc4nc[nH]c4c3)n2)cc1`, the IC50 in series [5] came to 13.9 µM; in series [6], 14.8 µM. Further, in series [7], the “Ratio IC50” value was 1.1.

On to `COc1ccc(-c2ccnc(Nc3ccc(S(N)(=O)=O)cc3)n2)cc1`, for which the results for the half-maximal inhibitory concentration (IC50) in series [5] and in series [6] were 4.4 µM and 2.4 µM, respectively. In addition, in [7], the “Ratio IC50” value was found to be 0.

Molecule `COc1ccc(-c2ccnc(Nc3cccc(S(N)(=O)=O)c3)n2)cc1` showed a solubility in [1] of 38.4 µM (≈ 13.7 µg/mL). The Activity turned out to be 63.3% in [2], 76.3% in series [4] and 82.3% in [8]. This molecule also registered a logD at 6 h in series [3] of 2.7. For the same molecule, the IC50 in [5] worked out at 1.6 µM; in [11], 1.29 µM; in series [13], 5.95 µM; in [6] it was 1.1 µM; in series [12], 2.08 µM. The “Ratio IC50” value in series [7] is listed as 0.

In the case of `COc1cccc2c1C(=O)c1c(O)c3c(c(O)c1C2=O)C[C@@](O)(C(=O)CO)C[C@@H]3O[C@H]1C[C@H](N)[C@H](O)[C@H](C)O1` [DOXORUBICIN], the results for the Activity in [9] and in [10] were 96.98% and 99.7%, respectively. The IC50 was found to be 0.4 µM in series [5], 1.35 µM in series [11], 1.4 µM in series [6] and 0.06 µM in series [12].

Take `CC(=O)Nc1ccc(-c2ccnc(Nc3cccc(S(N)(=O)=O)c3)n2)cc1`: the IC50 in series [5] was determined as 6.6 µM; in series [6], 8.7 µM. Moreover, the “Ratio IC50” value in series [7] amounted to 1.3.

With `CC(=O)Nc1ccc(-c2ccnc(Nc3cccc(C(N)=O)c3)n2)cc1`, the IC50 in [5] was 33 µM; in [6], over 100 µM. Besides, the “Ratio IC50” value in series [7] is given as over 3.

Take `Cc1csc(-c2ccnc(Nc3cccc(C(N)=O)c3)n2)c1`: the IC50 in [5] and in series [6] was over 100 µM throughout. In addition, in series [7], the “Ratio IC50” value stood at 0.

As to `COc1ccc(-c2ccnc(Nc3ccc4cn[nH]c4c3)n2)cc1`, the IC50 in series [5] was 65.1 µM; in series [6] it was 7.9 µM. Also, the “Ratio IC50” value in [7] is listed as 0.

The molecule `COc1ccc(-c2ccnc(Nc3ccc(C(=O)O)cc3)n2)cc1` displayed a solubility in series [1] of 12.1 µM (≈ 3.89 µg/mL). For the same molecule, the Activity stood at 0% in series [2], 0% in [4] and 23.5% in series [8]. This molecule gave a logD at 6 h in [3] of 1.2. For the same molecule, the values for the IC50 in series [5] and in series [6] were 20.3 µM and over 100 µM, respectively. For the same molecule, the “Ratio IC50” value in series [7] is given as over 4.9.

`COc1ccc(-c2ccnc(Nc3cccc(NS(C)(=O)=O)c3)n2)cc1` gave a solubility in [1] of under 0.5 µM. The Activity in [2] was found to be 41%; in series [4], 43.7%; in series [8] it was 84.8%. This molecule also yielded a logD at 6 h in [3] of 3.2. The figures for the IC50 in [5], in series [6] and in series [12] were 0.2 µM, 0.9 µM and 5.35 µM, respectively. The “Ratio IC50” value in series [7] is 4.5.

For the molecule `COc1ccc(-c2ccnc(Nc3cccc(N)c3)n2)cc1`, the IC50 in series [14] was found to be 81 µM.

For the molecule `Cc1csc(-c2ccnc(Nc3ccc(C(N)=O)cc3)n2)c1`, the IC50 in series [5] was determined as 30 µM; in series [6], 6.2 µM. Further, the “Ratio IC50” value in [7] is listed as 0.

In series [13], `CC/C(=C(\c1ccccc1)c1ccc(OCCN(C)C)cc1)c1ccccc1` [TAMOXIFEN] registered an IC50 of 7.94 µM.

For the molecule `CS(=O)(=O)c1ccc(-c2ccnc(Nc3cccc(C(N)=O)c3)n2)cc1`, the IC50 is over 100 µM in series [5] and 37.9 µM in [6]. In addition, the “Ratio IC50” value in [7] is 0.
